Data as given in patent publication EP1800684A1, “Novel alkyl phospholipid derivatives and uses thereof” (Zentaris GmbH, priority 2005, dated 2007).
In brackets after ≈: the same amount, converted by molar mass.

Experiments:
Format in all cases: cell-based
[1] = tested on: PC3 (ATCC CRL1435, human prostate carcinoma); experiment: XTT cytotoxicity assay, PC3 cells; conditions: PC-3, 48 h, 2 days of continuous drug exposure
Method: Human tumor cell lines KB/HeLa (ATCC CCL17, human cervix carcinoma), PC3 (ATCC CRL1435, human prostate carcinoma) and RKOp21 (human colon adenocarcinoma) cells were used in an automated XTT screening assay for the assessment of cytotoxicity.
The XTT assay quantifies cellular metabolic activity which correlates with cell viability and cell number. Test compounds (selected compounds of the invention and known substances as controls) are dissolved in culture medium at 600µM and added to the tumor cells in 10 different concentrations in a semi-logarithmic fashion starting from 100 µM as highest concentration.
48h later cellular metabolic activity of cells treated with test compounds is quantified by measurement of the absorbance at 490nm (conversion of XTT dye) in comparison to untreated control cells (100% viability).
KB/HeLa and PC3 cells were cultivated in RPMI medium supplemented with 10% heat inactivated fetal calf serum, 2 mM glutamine, 100 U/ml penicillin, and 100 µg/ml streptomycin. RKOp21 cells were grown in DMEM supplemented with 10% heat inactivated fetal calf serum, 2 mM glutamine, 100 U/ml penicillin, and 100 µg/ml streptomycin. All cells were cultured at 37°C in 5% CO2 humidified air.
On the first day of the experiment cells were harvested from exponential phase cultures by trypsination, counted and plated into 96 well flat-bottom micro titer plates depending on the cell line as listed below:
After a 24h recovery to allow the cells to resume exponential growth, the test compounds were diluted immediately prior to use and transferred in 25µl volume to the wells.
Following 2 days of continuous drug exposure 50µl of freshly prepared XTT-PMS solution (2% […] PMS in PBS + 98% 1 mg/ml XTT in RPMI 1640 without phenol red) was added to the wells. To measure the proportion of living cells, the cells were incubated for 3 h with XTT-PMS reagent at 37°C, 5% CO2, humidified atmosphere allowing to form the formazan salt. The amount of soluble formazan salt produced by cellular reduction of XTT is quantified by measuring the absorbance at 490nm using the Biomek® 2000 ELISA plate reader.
%-inhibition (cytotoxicity) of each test compound was calculated in relation to untreated control cells. Inhibition curves were generated and IC50 values calculated by using GraphPad Prism.

[2] = tested on: Cryptocoocus neoformans (ATCC 90112); experiment: Anti-fungal susceptibility test (microdilution), fungus E; conditions: fungus E; no visible growth after 72 hours at 35° C; read-out: MIC
Method: (§1) The antifungal activities of the test compounds (compounds of the invention and known prior art compounds) were measured according to standard microdilution methods (Cryptococcus/Aspergillus: Ghannoum et al., Journal of Clinical Microbiology 1992, 30 (11): 2881-2886; Candida: Reference method for broth dilution susceptibility testing of yeast: proposed standard, NCCLS document M27-P, National Committee for Clinical Laboratory Standards 1992, Villanova, Pa).
(§2) A serial dilution series starting from 64 µg/mL test compound per well down to 0.125 µg/mL test compound per well was applied for each test compound on each fungus. The MIC of each compound was defined as the concentration which produces no visible growth after 48 hours (Candida) and 72 hours (Cryptococcus, Aspergillus) of culture at 35° C.
(§3) The following fungi were assessed: • A) Candida albicans (ATCC 10231) • B) Candida albicans (ATCC 90028) • C) Candida albicans (strain TS3, Shrikantha et al., Journal of Bacteriology 2000, 182(6):1580-1591) • D) Candida parapsilosis (ATCC 22019) • E) Cryptocoocus neoformans (ATCC 90112) • F) Cryptocoocus neoformans (strain H99; Ganendren et al., Antimicrobial Agents and Chemotherapy, 2004, 48(5):1561-1569) • G) Cryptocoocus gattii (ATCC 32608) • H) Aspergillus fumigatus (ATCC 204305) • I) Aspergillus fumigatus (strain 322-384)

[3] = tested on: Cryptocoocus neoformans (strain H99); experiment: Anti-fungal susceptibility test (microdilution), fungus F; conditions: fungus F; no visible growth after 72 hours at 35° C; read-out: MIC
Method: as §1, §2, §3

[4] = tested on: Cryptocoocus gattii (ATCC 32608); experiment: Anti-fungal susceptibility test (microdilution), fungus G; conditions: fungus G; no visible growth after 72 hours at 35° C; read-out: MIC
Method: as §1, §2, §3

[5] = tested on: Aspergillus fumigatus (strain 322-384); experiment: Anti-fungal susceptibility test (microdilution), fungus I; conditions: Aspergillus fumigatus, no visible growth after 72 hours at 35° C, read-out: MIC
Method: as §1, §2, §3

[6] = tested on: Trypanosoma brucei rhodesiense (strain STIB900); experiment: In vitro drug activity assay, protozoon B (bloodstream form trypomastigotes, Alamar Blue); conditions: incubated for 72 hours
Method: Trypanosoma brucei rhodesiense STIB900 bloodstream form trypomastigotes were maintained in HMI-18 medium (Hirumi H, Hirumi K, J Parasitol. 1989, 75(6):985-989) with 15% heat-inactivated fetal calf serum at 37°C, 5% CO2, humidified atmosphere. Trypomastigotes were washed and resuspended in fresh medium at a concentration of 2 x 10^5 mL. Test compounds were given to the trypomastigotes and plates were incubated for 72 hours at 37°C, 5% CO2, humidified atmosphere. At 72 hours the plates were assessed microscopically before Alamar Blue was added (Raz et al., Acta Trop. 1997, 68: 139-147). Plates were read after 5 to 6 hours at EX/EM 530/585 nm with a filter cutoff at 550 nm. ED50 values were calculated with Msxlfit (IDBS).
(§4) The following protozoa were assessed: • A) Trypanosoma cruzi (Tulahuan-LACZ amstigotes in PEM, Lorente SO et al., Antimicrobial agents and chemotherapy 2004, 48(8): 2937-2950; Buckner et al., Infection and Immunity 1999, 67(1): 403-409; Buckner et al., Antimicrobial Agents and Chemotherapy 1996, 40(11): 2592-2597) • B) Trypanosoma brucei rhodesiense (strain STIB900, Lorente SO et al., Antimicrobial agents and chemotherapy 2004, 48(8): 2937-2950; Habtemariam S, BMC Pharmacology 2003, 3:6) • C) Plasmodium falciparum (strain K1, Korsinczky M et al., Antimicrobial agents and chemotherapy 2000, 44(8): 2100-2108; Thaitong S and Beale GH, Trans. R. Soc. Trop. Med. Hyg. 1981, 75: 271-273; Trager W and Jensen JB, Science 1976, 193: 673-675) • D) Plasmodium falciparum (strain 3D7, Mu et al., PLoS Biology 2005, 3(10): e335)

[7] = tested on: Plasmodium falciparum (strain 3D7); experiment: In vitro drug susceptibility assay, protozoon D (3[H]-hypoxanthine method)
Method: Plasmodium falciparum strain K1 and strain 3D7 parasites were cultured according to Trager W and Jensen JB (Science 1976, 193: 673-675). In vitro drug susceptibility assays with the test compounds were carried out according to Korsinczky M et al. (Antimicrobial agents and chemotherapy 2000, 44(8): 2100-2108) and Fivelman QL et al. (Antimicrobial agents and chemotherapy 2004, 48(11): 4097-4102) using a ^3[H]-hypoxanthine radioisotope method. ED50 values were calculated with Msxlfit (IDBS).
as §4

CCCCCCCCCCCCCCCCOP(=O)([O-])OCC[N+]1(C)CCCCC1 [Compound 2, Phosphoric acid 2-(1-methyl-piperidin-1-yl)-ethyl ester hexadecyl ester]
IC50 [1]: 19.6 µM
MIC [2]: 1.5 µg/mL (≈ 3.35 µM)
MIC [3]: 1 µg/mL (≈ 2.23 µM)
MIC [4]: 0.75 µg/mL (≈ 1.68 µM)
MIC [5]: 2 µg/mL (≈ 4.47 µM)
ED50 (µg/mL) [6]: 17,50 µg/mL
ED50 (µg/mL) [7]: 2,21 µg/mL
